Laboratory results taken from EPA's CvTdb concentration-time database.

Legend:
Mouse [1] = experiment: concentration in plasma after dosing; conditions: 2 h; dosed: 2-Hydroxy-4-methoxybenzophenone; 500 mg/kg; oral; Male; B6C3F1
Mouse [2] = experiment: concentration in plasma after dosing; conditions: 10 min; dosed: 2-Hydroxy-4-methoxybenzophenone; 50 mg/kg; iv; Male; B6C3F1
Mouse [3] = experiment: concentration in plasma after dosing; conditions: 2 h; dosed: 2-Hydroxy-4-methoxybenzophenone; 50 mg/kg; iv; Female; B6C3F1
Mouse [4] = experiment: concentration in plasma after dosing; conditions: 3 h; dosed: 2-Hydroxy-4-methoxybenzophenone; 50 mg/kg; iv; Male; B6C3F1
Rat [5] = experiment: concentration in plasma after dosing; conditions: 5 min; dosed: Nitrite; 40 mg/kg; oral; Female; F344
Rat [6] = experiment: concentration in plasma after dosing; conditions: 5 min; dosed: Nitrite; 20 mg/kg; iv; Male; F344
Rat [7] = experiment: concentration in plasma after dosing; conditions: 5 min; dosed: Nitrite; 80 mg/kg; oral; Female; F344
Rat [8] = experiment: concentration in plasma after dosing; conditions: 2 min; dosed: Nitrite; 80 mg/kg; oral; Female; F344
Rat [9] = experiment: concentration in plasma after dosing; conditions: dosed: Nitrite, 80 mg/kg, oral, Female, F344
Rat [10] = experiment: concentration in plasma after dosing; conditions: dosed: Nitrite, 80 mg/kg, oral, Female, F344; remark: listed apart in the source
Rat [11] = experiment: concentration in plasma after dosing; conditions: 10 min; dosed: Nitrite; 80 mg/kg; oral; Female; F344
Rat [12] = experiment: concentration in kidney after dosing; conditions: 6 h; dosed: Fluorotelomer alcohol 8+2; 24 mg/kg; oral; Male; Harlan Sprague Dawley
Rat [13] = experiment: concentration in kidney after dosing; conditions: 0.5 h; dosed: Fluorotelomer alcohol 8+2; 80 mg/kg; oral; Female; Harlan Sprague Dawley
Rat [14] = experiment: concentration in liver after dosing; conditions: 12 h; dosed: Fluorotelomer alcohol 8+2; 80 mg/kg; oral; Female; Harlan Sprague Dawley
Rat [15] = experiment: concentration in liver after dosing; conditions: 3 h; dosed: Perfluorooctanoic acid; 80 mg/kg; oral; Female; Harlan Sprague Dawley
Rat [16] = experiment: concentration in plasma after dosing; conditions: 3 h; dosed: 678-39-7; 12 mg/kg; iv; Male; F344
Rat [17] = experiment: concentration in plasma after dosing; conditions: dosed: 678-39-7, 40 mg/kg, iv, Male, F344
Rat [18] = experiment: concentration in liver after dosing; conditions: 3 h; dosed: Perfluorooctanoic acid; 12 mg/kg; oral; Male; Harlan Sprague Dawley
Rat [19] = experiment: concentration in liver after dosing; conditions: 12 h; dosed: Perfluorooctanoic acid; 80 mg/kg; oral; Female; Harlan Sprague Dawley
Rat [20] = experiment: concentration in liver after dosing; conditions: 0.5 h; dosed: Fluorotelomer alcohol 8+2; 80 mg/kg; oral; Female; Harlan Sprague Dawley
Rat [21] = experiment: concentration in liver after dosing; conditions: 6 h; dosed: Potassium Perfluorobutane Sulfonate; 20 mg/kg; oral; Female; Harlan Sprague Dawley
Rat [22] = experiment: concentration in brain after dosing; conditions: 0.5 h; dosed: Potassium Perfluorobutane Sulfonate; 20 mg/kg; oral; Female; Harlan Sprague Dawley
Rat [23] = experiment: concentration in kidney after dosing; conditions: 6 h; dosed: Potassium Perfluorobutane Sulfonate; 20 mg/kg; oral; Female; Harlan Sprague Dawley
Rat [24] = experiment: concentration in plasma after dosing; conditions: 1 h; dosed: Potassium Perfluorobutane Sulfonate; 4 mg/kg; iv; Male; F344
Rat [25] = experiment: concentration in kidney after dosing; conditions: 3 h; dosed: Potassium Perfluorobutane Sulfonate; 20 mg/kg; oral; Female; Harlan Sprague Dawley
Rat [26] = experiment: concentration in liver after dosing; conditions: 0.5 h; dosed: Potassium Perfluorobutane Sulfonate; 20 mg/kg; oral; Female; Harlan Sprague Dawley
Rat [27] = experiment: concentration in kidney after dosing; conditions: 1 h; dosed: Potassium Perfluorobutane Sulfonate; 20 mg/kg; oral; Male; Harlan Sprague Dawley
Rat [28] = experiment: concentration in plasma after dosing; conditions: 1 h; dosed: Potassium Perfluorobutane Sulfonate; 4 mg/kg; iv; Female; Harlan Sprague-Dawley
Rat [29] = experiment: concentration in kidney after dosing; conditions: 0.5 h; dosed: Potassium Perfluorobutane Sulfonate; 20 mg/kg; oral; Female; Harlan Sprague Dawley
rat [30] = experiment: concentration in serum after dosing; conditions: dosed: benzo[a]pyrene, male, Wistar
rat [31] = experiment: amount in urine after dosing (umol); conditions: dosed: methanol, 100 mg/kg, iv, male, CDF(F344)/CrlBR
rat [32] = experiment: concentration in blood after dosing; negative times count back from the end of exposure; conditions: dosed: methanol, inhalation, duration: 6 hr, male

Question: For COc1ccc(C(=O)c2ccccc2)c(O)c1 [2-Hydroxy-4-methoxybenzophenone], which concentration in plasma (Mouse [1]) is on record?
Answer: 90.1 ng/mL

Question: And the concentration in plasma (Mouse [2])?
Answer: 14000 ng/mL

Question: What about the concentration in plasma (Mouse [3]) of the same compound?
Answer: 311 ng/mL

Question: What about the concentration in plasma (Mouse [4]) of the same compound?
Answer: 175 ng/mL

Question: How did the concentration in plasma (Rat [5]) turn out when O=N[O-] [Nitrite] was run?
Answer: 9500 ng/mL

Question: And the concentration in plasma (Rat [6])?
Answer: 8200 ng/mL

Question: What about the concentration in plasma (Rat [7]) of the same compound?
Answer: 9600 ng/mL

Question: And the concentration in plasma (Rat [8])?
Answer: 7000 ng/mL

Question: What about the concentration in plasma (Rat [9]; 0.5 h) of the same compound?
Answer: 20500 ng/mL

Question: What about the concentration in plasma (Rat [9]; 4 h) of the same compound?
Answer: 4900 ng/mL

Question: And the concentration in plasma (Rat [10]; 0.5 h)?
Answer: 11900 ng/mL

Question: And the concentration in plasma (Rat [10]; 4 h)?
Answer: 2400 ng/mL

Question: And the concentration in plasma (Rat [11])?
Answer: 15400 ng/mL

Question: What does the source list for O=C(O)C(F)(F)C(F)(F)C(F)(F)C(F)(F)C(F)(F)C(F)(F)C(F)(F)F [Perfluorooctanoic acid]?
Answer: concentration in kidney (Rat [12]): 381 ng/g; concentration in kidney (Rat [13]): 360 ng/g; concentration in liver (Rat [14]): 487 ng/g; concentration in liver (Rat [15]): 32900 ng/g; concentration in plasma (Rat [16]): 497 ng/mL; concentration in plasma (Rat [17]; 0.5 h): 1400 ng/mL; concentration in plasma (Rat [17]; 9 h): 716 ng/mL; concentration in liver (Rat [18]): 50700 ng/g; concentration in liver (Rat [19]): 64300 ng/g; concentration in liver (Rat [20]): 579 ng/g

Question: Which concentration in liver (Rat [21]) does the source give for O=S(=O)([O-])C(F)(F)C(F)(F)C(F)(F)C(F)(F)F.[K+] [Potassium Perfluorobutane Sulfonate] here?
Answer: 2620 ng/g

Question: And the concentration in brain (Rat [22])?
Answer: 511 ng/g

Question: What about the concentration in kidney (Rat [23]) of the same compound?
Answer: 3360 ng/g

Question: And the concentration in plasma (Rat [24])?
Answer: 20200 ng/mL

Question: What about the concentration in kidney (Rat [25]) of the same compound?
Answer: 10500 ng/g

Question: And the concentration in liver (Rat [26])?
Answer: 48000 ng/g

Question: And the concentration in kidney (Rat [27])?
Answer: 28600 ng/g

Question: What about the concentration in plasma (Rat [28]) of the same compound?
Answer: 5120 ng/mL

Question: What about the concentration in kidney (Rat [29]) of the same compound?
Answer: 26700 ng/g

Question: For c1ccc2c(c1)cc1ccc3cccc4ccc2c1c34 [benzo[a]pyrene], which concentration in serum (rat [30]; 0.3352 h, 2 mg/kg, iv) is on record?
Answer: 2230 ng/mL

Question: And the concentration in serum (rat [30]; 0.4717 h, 20 mg/kg, oral)?
Answer: 116 ng/mL

Question: What about the concentration in serum (rat [30]; 0.752 h, 2 mg/kg, iv) of the same compound?
Answer: 1020 ng/mL

Question: What about the concentration in serum (rat [30]; 1.006 h, 2 mg/kg, iv) of the same compound?
Answer: 635 ng/mL

Question: And the concentration in serum (rat [30]; 1.061 h, 20 mg/kg, oral)?
Answer: 486 ng/mL

Question: What about the concentration in serum (rat [30]; 1.985 h, 20 mg/kg, oral) of the same compound?
Answer: 989 ng/mL

Question: What about the concentration in serum (rat [30]; 2.002 h, 2 mg/kg, iv) of the same compound?
Answer: 85.5 ng/mL

Question: What about the concentration in serum (rat [30]; 3.99 h, 20 mg/kg, oral) of the same compound?
Answer: 936 ng/mL

Question: What about the concentration in serum (rat [30]; 4.005 h, 2 mg/kg, iv) of the same compound?
Answer: 4.48 ng/mL

Question: And the concentration in serum (rat [30]; 5.975 h, 20 mg/kg, oral)?
Answer: 261 ng/mL

Question: What about the concentration in serum (rat [30]; 5.998 h, 2 mg/kg, iv) of the same compound?
Answer: 2.43 ng/mL

Question: What about the concentration in serum (rat [30]; 7.98 h, 20 mg/kg, oral) of the same compound?
Answer: 86 ng/mL

Question: And the concentration in serum (rat [30]; 8 h, 2 mg/kg, iv)?
Answer: 2.04 ng/mL

Question: What about the concentration in serum (rat [30]; 9.966 h, 20 mg/kg, oral) of the same compound?
Answer: 16.8 ng/mL

Question: And the concentration in serum (rat [30]; 24.02 h, 20 mg/kg, oral)?
Answer: 1.38 ng/mL

Question: Which amount in urine (rat [31]; 0.9988 h) does the source give for CO [methanol] here?
Answer: 1.09

Question: What about the amount in urine (rat [31]; 2.972 h) of the same compound?
Answer: 5.07

Question: What about the amount in urine (rat [31]; 5.961 h) of the same compound?
Answer: 7.79

Question: What about the amount in urine (rat [31]; 9.961 h) of the same compound?
Answer: 11.5

Question: What about the amount in urine (rat [31]; 11.92 h) of the same compound?
Answer: 11.7

Question: What about the amount in urine (rat [31]; 14.89 h) of the same compound?
Answer: 11.7

Question: What about the concentration in blood (rat [32]; 0.4288 h, 200 ppm, CDF(F344)/CrlBR) of the same compound?
Answer: 2410 ng/mL

Question: What about the concentration in blood (rat [32]; 0.9278 h, 200 ppm, CDF(F344)/CrlBR) of the same compound?
Answer: 2010 ng/mL

Question: What about the concentration in blood (rat [32]; 1.006 h, 2000 ppm, Fischer-344) of the same compound?
Answer: 83800 ng/mL

Question: And the concentration in blood (rat [32]; 1.926 h, 200 ppm, CDF(F344)/CrlBR)?
Answer: 1400 ng/mL

Question: What about the concentration in blood (rat [32]; 2.976 h, 2000 ppm, Fischer-344) of the same compound?
Answer: 53300 ng/mL

Question: And the concentration in blood (rat [32]; 2.996 h, 200 ppm, CDF(F344)/CrlBR)?
Answer: 1200 ng/mL

Question: And the concentration in blood (rat [32]; 4.511 h, 200 ppm, CDF(F344)/CrlBR)?
Answer: 1510 ng/mL

Question: And the concentration in blood (rat [32]; 5.974 h, 2000 ppm, Fischer-344)?
Answer: 16700 ng/mL

Question: What about the concentration in blood (rat [32]; 8.995 h, 2000 ppm, Fischer-344) of the same compound?
Answer: 702 ng/mL

Question: And the concentration in blood (rat [32]; 11.92 h, 2000 ppm, Fischer-344)?
Answer: 702 ng/mL

Question: And the concentration in blood (rat [32]; -206 s, 2000 ppm, Fischer-344, during exposure)?
Answer: 80600 ng/mL

Question: What about the concentration in blood (rat [32]; -0.07 h, 200 ppm, CDF(F344)/CrlBR, during exposure) of the same compound?
Answer: 3510 ng/mL

Question: And the concentration in blood (rat [32]; -3.047 h, 200 ppm, CDF(F344)/CrlBR, during exposure)?
Answer: 3110 ng/mL

Question: And the concentration in blood (rat [32]; -3.08 h, 2000 ppm, Fischer-344, during exposure)?
Answer: 59900 ng/mL

Question: And the concentration in blood (rat [32]; -5.115 h, 200 ppm, CDF(F344)/CrlBR, during exposure)?
Answer: 4520 ng/mL

Question: And the concentration in blood (rat [32]; -5.151 h, 2000 ppm, Fischer-344, during exposure)?
Answer: 24300 ng/mL

Question: What about the concentration in blood (rat [32]; -5.613 h, 2000 ppm, Fischer-344, during exposure) of the same compound?
Answer: 18900 ng/mL

Question: And the concentration in blood (rat [32]; -5.615 h, 200 ppm, CDF(F344)/CrlBR, during exposure)?
Answer: 1400 ng/mL
